Experimental data published in patent publication US10881656B2, “HIF inhibitors and use thereof” (The General Hospital Corporation, priority 2008, dated 2021).

Legend:
[1] = system: HIF-2a (HRE-luciferase, 7H4 cells); test: HRE-luciferase reporter assay in 786-O derived 7H4 cells; format: cell-based, human; settings: 786-O cells, 24 hours
Procedure: The screen for small molecule inhibitors was performed in the Institute for Chemical and Cellular biology, Harvard Medical School. 7SV or 7H4 cells were plated onto 384-well plates. The next day compounds were added robotically to the medium, to a final concentration of approximately 10 μM. 24 hours later, media was aspirated and Passive Lysis Buffer (Promega) and Luciferase Assay Reagent II (Promega) were added. Luciferase activity was measured with an Analyst plate reader (LJL Biosystems). All experiments were performed in duplicate and the identity of lead compounds was confirmed by mass spectroscopy
Luciferase assays were performed using the Promega's Dual-luciferase Assay Reporter System (Promega, E1910) according to the manufacturer's instructions. Counts obtained from transient transfections were normalized for co-transfected Renilla luciferase. Stable clones were normalized to medium only treated wells.
Functionally validated HRE and control SV40 luciferase reporter constructs were stably introduced into VHL-deficient 786-O cells to generate 7H4 and 7SV lines, respectively (see FIG. 8A). These lines were used to screen five commercial small molecule libraries (NCI Diversity Set, Chembridge, Maybridge, CEREP and Peakdale) and the ICCB Diversity-Oriented Synthesis (DOS) Diversity Set 2 (DDS2) and serine-derived peptidomimetic (SDP1) collections, totaling 58,000 compounds.
786-O cells were untreated (M, for medium only), mock-treated (D, for DMSO) or treated with compounds for two days before assaying for normalized luciferase activity. The resulting dose response curves are shown along with the compound structures in FIGS. 1A-1H).
To validate the connectivity map-derived prediction that PGJ2 is involved in HIF signaling, the inventors treated HRE-luciferase expressing 786-O cells (7H4) and SV40-luciferase expressing control cells (7SV) with increasing doses of PGJ2.

NFkB = test: TransAM NFkB ELISA; format: cell-based, human; settings: 786-O cells, 5uM, 24 hours
Procedure: Experiments were performed in triplicate. Error bars represent Standard Error of the Mean (SEM).

HIF = settings: published; cited from earlier work
[2] = system: HIF-2a 5′-UTR Iron-Responsive Element (IRE); test: Luciferase reporters with HIF-2a 5′-UTR / IRE in 786-O cells; format: cell-based, human; settings: 10 μM, normoxia and hypoxia
[3] = molecular target: T1, IRP2 binding to Ferritin-L IRE (Homo sapiens, UniProt P48200); test: Electrophoretic mobility shift assay, Ferritin L IRE probe; settings: 786-O lysates, EMSA
T1 construct: when expressed in endogenous levels; endogenous in cells; host or cells: 786-O
Procedure: EMSAs were performed as described previously (Fillebeen et al., 2003). Briefly, 50 μg lysate from 786-O cells treated with medium only, DMSO, or compounds were incubated with 25,000 cpm wild-type or mutant radiolabeled HIF-2a IRE probe for 20 minutes at room temperature before loading onto non-denaturing acrylamide gels. Supershifts were performed identically, save that 0.2 μg control, IRP1 or IRP2 antibodies were also added. Total protein content was estimated by Bradford Assay (BioRad, 500-0006), and even loading for all experiments was confirmed by Western blot for B-Actin.
Inventors discovered that compound 76 increased the residual amount of IRP1 bound to the HIF-2a IRE in hypoxia, although not to the same extent as that observed in normoxic cells. […] Lastly, to further investigate the involvement of IRP2 in HIF-2a IRE, the inventors compared side by side IRP2 binding to HIF-2a and Ferritin-L IRE in 786-O cells, in conditions of normoxia or hypoxia and after treatment with compound 76 or DFO (FIG. 7E). While IRP2 binding was clearly detected on Ferritin IRE, the inventors were not able to detect measurable IRP2 binding on HIF-2a IRE.

[4] = system: iron (Fe-(EDHB)3 complex); test: In vitro iron competition assay; settings: 0-200 micromolars, absorbance at 500 nm
Procedure: This assay was performed similarly to that described previously (Wang et al., 2002). Briefly, displacement of iron from ethyl-3,4-dihydroxybenzoate (EDHB) complex was measured as a decrease in absorbance at 500 nm. Ferric iron, prepared as a 5 mM stock solution of FeC13 in 100 mM sodium citrate, was diluted to 25 μM in the presence of 750 μM EDHB. 1 ml aliquots of this solution were then mixed with 0, 25, 50, 100 or 200 micromolars of compounds 40, 41, 76, and 77 as well as EDTA and DFO for controls. […] The self absorbance of compound 41 in a matched solution lacking Fe-(EDHB)3 was subtracted from the A500 value obtained in the presence of the Fe-(EDHB)3 complex.
The inventors next directly tested whether the compounds bind iron by performing a competition assay in which the displacement of iron from ethyl-3,4-dihydroxybenzoate (EDHB), a weakly chelating ester, was measured as a decrease in absorbance at 500 nm. […] In addition, the inventors utilized the Connectivity Map to look for similarities between the induced gene expression signatures of low and high dose DFO and compound treated cells (Lamb et al., 2006). Using this bioinformatic approach, the inventors discovered no significant similarity between the gene expression profile of the compounds and low (chelating) DFO dose, while there was a negative correlation between compound effect and high (HIF stabilizing) DFO dose (see FIG. 13).

T1 sequence (P48200 whole entry): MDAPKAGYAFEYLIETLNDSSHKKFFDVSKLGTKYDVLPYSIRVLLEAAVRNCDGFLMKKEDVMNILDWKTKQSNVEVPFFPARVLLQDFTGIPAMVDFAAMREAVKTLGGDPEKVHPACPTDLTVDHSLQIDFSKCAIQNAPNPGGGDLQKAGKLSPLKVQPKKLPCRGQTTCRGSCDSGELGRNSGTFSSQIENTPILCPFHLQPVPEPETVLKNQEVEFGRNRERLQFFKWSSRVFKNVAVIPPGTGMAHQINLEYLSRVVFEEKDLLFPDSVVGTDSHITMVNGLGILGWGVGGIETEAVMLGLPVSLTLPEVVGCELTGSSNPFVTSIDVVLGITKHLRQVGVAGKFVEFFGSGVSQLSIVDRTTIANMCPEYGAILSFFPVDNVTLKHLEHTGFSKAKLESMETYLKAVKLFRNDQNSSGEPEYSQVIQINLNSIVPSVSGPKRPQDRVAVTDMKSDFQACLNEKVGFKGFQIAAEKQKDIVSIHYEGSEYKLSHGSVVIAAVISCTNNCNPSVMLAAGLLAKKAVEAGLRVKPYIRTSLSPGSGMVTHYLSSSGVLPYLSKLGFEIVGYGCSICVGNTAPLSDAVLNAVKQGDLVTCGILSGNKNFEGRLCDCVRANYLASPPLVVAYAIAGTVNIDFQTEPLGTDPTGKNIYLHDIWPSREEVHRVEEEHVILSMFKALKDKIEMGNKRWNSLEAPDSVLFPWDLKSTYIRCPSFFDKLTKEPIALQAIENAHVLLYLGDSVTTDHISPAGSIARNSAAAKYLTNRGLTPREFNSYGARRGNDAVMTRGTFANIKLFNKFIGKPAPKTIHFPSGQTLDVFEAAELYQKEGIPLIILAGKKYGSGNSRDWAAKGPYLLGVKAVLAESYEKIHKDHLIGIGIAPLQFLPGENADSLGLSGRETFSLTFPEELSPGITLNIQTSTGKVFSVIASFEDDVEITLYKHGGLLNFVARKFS

Cc1ccc2nc(NCCN)c3ncc(C)n3c2c1 [BMS-345541, reference compound]
HRE-luciferase activity [1]: did not alter the HRE-luciferase activity | basal NFkB activity (NFkB): basal NFkB activity is suppressed

COc1ccc2cc3[n+](cc2c1OC)CCc1cc2c(cc1-3)OCO2 [Berberine]
Mechanism of HIF inhibtion (HIF): HIF degradation

CC(C)(c1ccc(O)cc1)c1ccc(O)cc1 [Bisphenol]
Mechanism of HIF inhibtion (HIF): HIF degradation

COc1cc2c(cc1O)CC[C@@H]1[C@@H]2CC[C@]2(C)[C@@H](O)CC[C@@H]12 [Compound 2-ME2]
Biological Activities (HIF): Inhibits HUVEC | Mechanism of HIF inhibtion (HIF): Post-transcriptional

CC(=O)N(O)CCCCCNC(=O)CCC(=O)N(O)CCCCCNC(=O)CCC(=O)N(O)CCCCCN [DFO, reference compound]
HIF-2a IRE luciferase reporter activity [2]: repressed reporter activity and diminished the effect of hypoxia | binding of IRP2 to Ferritin-L IRE [3]: slightly enhanced | displacement of iron from EDHB complex (iron chelation) [4]: readily displaced iron from EDHB

O=C(O)CN(CCN(CC(=O)O)CC(=O)O)CC(=O)O [EDTA, reference compound]
displacement of iron from EDHB complex (iron chelation) [4]: readily displaced iron from EDHB

COc1cc([C@@H]2c3cc4c(cc3[C@@H](Nc3ccc([N+](=O)[O-])cc3)[C@H]3COC(=O)[C@H]23)OCO4)cc(OC)c1O [GL331]
Biological Activities (HIF): Inhibits HUVEC | Mechanism of HIF inhibtion (HIF): Protein levels

CCC(C)SSc1ncc[nH]1 (stereo not drawn) [PX-12]
Biological Activities (HIF): Tumor suppression

OCc1ccc(-c2nn(Cc3ccccc3)c3ccccc23)o1 [YC-1]
Biological Activities (HIF): VEGF decrease/tumor | Mechanism of HIF inhibtion (HIF): HIF protein levels
